{
  "source": "patent US20100015220A1",
  "about": "“NIACIN AND NSAID COMBINATION THERAPY” (priority 2008, published 2010)",
  "key": {"[1]": {"tested_on": "flushing induced by nicotinic acid", "conditions": "guinea pigs; aspirin 50, 100 or 200 mg/kg; cited from earlier work"}, "[2]": {"tested_on": "flushing induced by nicotinic acid", "conditions": "humans; total 975 mg aspirin (650 mg at 1 hr and 325 mg at 0.5 hr prior to high dose nicotinic acid); cited from earlier work"}, "[3]": {"experiment": "Example 2 safety: monitoring of adverse events", "assay_type": "in vivo, healthy volunteers", "experimental": "Safety was assessed be assessing flushing episodes and by monitoring of other adverse events.\nAn adverse event (AE) is any unfavorable and unintended sign including an abnormal laboratory finding, symptom, or disease temporally associated with the use of a medical product, whether or not considered related to the study drug. The severity rating was scaled based on the following categories: • mild—awareness of a symptom, but easily tolerated; • moderate—discomfort enough to cause interference with usual activity; • severe—incapacitating with inability to work or perform usual activity.\nA total of 54 subjects were enrolled in the study. Forty-six subjects completed all three dosing periods and have contributed data to the evaluation of flushing parameters. A total of 51 subjects were exposed to Treatment A (240 mg ASA), 50 to B (60 mg ASA), and 50 to C (Placebo); these subjects comprise the population for evaluation of safety parameters."}, "[4]": {"tested_on": "flushing following niacin dosing", "experiment": "Example 1 clinical study: anti-flushing effect of aspirin regimen on immediate release niacin", "assay_type": "in vivo, healthy volunteers", "conditions": "243 mg aspirin per day for four days plus 20 mg/hr from 6 h before to 5 h after immediate release niacin; vs placebo", "description": "Provided is the clinical study to establish an anti-flushing effect of aspirin regimen on immediate release niacin. The primary endpoints for this study were treatment group comparisons of: • incidence, duration and severity of flushing following niacin dosing; • routine monitoring adverse events. Subjects have screening procedures performed up to 4 weeks prior to the first dosing visit. All qualified subjects received two single doses of niacin one week apart. Subjects were randomized to receive either an aspirin regimen or a placebo regimen prior to their niacin dose on day 1 and the opposite regimen prior to their niacin dose on day 8. At randomization, subjects received blinded study medication to be taken in the morning and evening of days −4, −3, −2 and −1. Subjects checked into the clinic on day −1 and remained housed for approximately 24 hours after niacin dosing on day 1. Prior to leaving the clinic, they received blinded study medication to be taken on the morning and evening of days 4, 5, 6, and 7. Subjects returned to the clinic on day 7 and remained housed for approximately 24 hours after niacin dosing on day 8. […] Episodes of flushing (including burning, itching, crawling sensation, pain and/or reddening of the skin, fever-like sensation) were recorded with start and end time and maximum severity captured. […]"}, "[5]": {"tested_on": "flushing associated with single-dose administration of extended-release niacin (Niaspan)", "experiment": "Example 2 three-way cross-over study: anti-flushing effects of two aspirin regimens versus placebo on extended release niacin", "assay_type": "in vivo, healthy volunteers", "conditions": "for subjects who experienced a flushing response: 2 g extended-release niacin; for subjects who experienced a flushing response / total number of flushing episodes: 46 subjects; for maximum severity of flushing, mean / maximum severity of flushing, median: 100 mm VAS; for total cumulative duration of flushing, mean / total cumulative duration of flushing, median: start of first episode to end of last", "description": "To assess the ability of two aspirin regimens to decrease flushing associated with single-dose administration of extended-release niacin (Niaspan®). […] Study subjects remained housed overnight at the clinical research center following niacin dosing to carefully monitor for flushing reactions and other adverse events. Each subject received all three dosing regimens in a randomized, three-way cross-over fashion. Subjects have screening procedures performed up to 4 weeks prior to Period 1 Day (the first dosing visit), including assessment of flushing response to a 500 mg immediate release niacin (Niacor®) challenge. All qualified subjects received three single doses of extended-release niacin at least one week apart during three treatment periods. Subjects were randomized to receive one of the two aspirin regimens or placebo prior to their niacin dose on Day 1 of each treatment period. At randomization, subjects received blinded study medication to be taken in the evening of days -3 and -2. For each treatment period, subjects checked into the clinic on Day -1 and remained housed for at least 18 hours after niacin dosing on Day 1. Prior to leaving the clinic during treatment periods 1 and 2, subjects received blinded study medication to be taken in the morning and evening of Days -3 and -2 of the next treatment period. End of study procedures was performed on Day 2 of treatment period 3 240 mg […]. for three days prior to niacin dosing plus 30 mg ASA per hour for eight hours, starting 4 hours prior to niacin dosing. 10 mg ASA per hour for 6 hours prior to niacin dosing. This regimen tested whether a lower dose of aspirin without an aspirin lead-in, and given entirely prior to niacin dosing, was sufficient to diminish flushing. No aspirin. This regimen acted as the negative control. Niaspan®, as well as blinded aspirin or placebo, for oral administration during the inpatient portion of each treatment period (Day -1 and Day 1) were dispensed by study pharmacist and administered to the subject by study personnel. Aspirin or placebo were administered in the evening on Day -1 and hourly on Day 1 for 6 hours before, concurrently with, and hourly for 3 hours after the Niaspan® dose. Episodes of flushing (including burning, itching, crawling sensation, pain and/or reddening of the skin, fever-like sensation) were recorded with start and end time maximum severity, and individual symptoms captured. A 100 mm visual analog scale (0=no flushing symptoms; 100=intolerable symptoms) was used to capture severity as reported by the subject. For each subject during each treatment period, the number of episodes of flushing, maximum severity of all episodes of flushing, and total duration of flushing, from start of the first episode to the end of the last episode, was calculated and summarized by treatment regimen. […] A total of 54 subjects were enrolled in the study. Forty-six subjects completed all three dosing periods and have contributed data to the evaluation of flushing parameters. A total of 51 subjects were exposed to Treatment A (240 mg ASA), 50 to B (60 mg ASA), and 50 to C (Placebo); these subjects comprise the population for evaluation of safety parameters."}, "[6]": {"experiment": "ASA and salicylic acid plasma pharmacokinetic profiles", "assay_type": "in vivo", "conditions": "for aspirin plasma AUC / salicylic acid plasma AUC: in vivo; for Cmax: plasma, oral"}, "[7]": {"conditions": "in vivo; cited from earlier work"}},
  "note": "Where two headings read alike, the source gives them in different places.",
  "data": [
    {"smiles": "CC(=O)Oc1ccccc1C(=O)O", "note": "[ASA, acetyl salicylic acid]", "values": [
      {"measurement": "flushing induced by nicotinic acid", "setting": "[1]", "result": "reduce the flushing induced by nicotinic acid"},
      {"measurement": "flushing induced by nicotinic acid", "setting": "[2]", "result": "reduce the flushing induced by nicotinic acid"},
      {"measurement": "adverse events involving gastrointestinal disorders", "setting": "[3]; 60 mg ASA", "result": 3, "unit": "subjects"},
      {"measurement": "headache", "setting": "[3]; 60 mg ASA", "result": 5, "unit": "subjects"},
      {"measurement": "Number of AEs", "setting": "[3]; 60 mg ASA (n = 50)", "result": 14},
      {"measurement": "Subjects with AEs Leading to Withdrawal", "setting": "[3]; 60 mg ASA (n = 50)", "result": "0 (0.0%) subjects (%)"},
      {"measurement": "Subjects with Serious AEs", "setting": "[3]; 60 mg ASA (n = 50)", "result": "0 (0.0%) subjects (%)"},
      {"measurement": "Subjects with Severe AEs", "setting": "[3]; 60 mg ASA (n = 50)", "result": "0 (0.0%) subjects (%)"},
      {"measurement": "Subjects with any AE", "setting": "[3]; 60 mg ASA (n = 50)", "result": "10 (20.0%) subjects (%)"},
      {"measurement": "Subjects with any CTM-related AE", "setting": "[3]; 60 mg ASA (n = 50)", "result": "7 (14.0%) subjects (%)"},
      {"measurement": "adverse events involving gastrointestinal disorders", "setting": "[3]; 240 mg ASA", "result": 4, "unit": "subjects"},
      {"measurement": "headache", "setting": "[3]; 240 mg ASA", "result": 4, "unit": "subjects"},
      {"measurement": "Number of AEs", "setting": "[3]; 240 mg ASA (n = 51)", "result": 14},
      {"measurement": "Subjects with AEs Leading to Withdrawal", "setting": "[3]; 240 mg ASA (n = 51)", "result": "0 (0.0%) subjects (%)"},
      {"measurement": "Subjects with Serious AEs", "setting": "[3]; 240 mg ASA (n = 51)", "result": "0 (0.0%) subjects (%)"},
      {"measurement": "Subjects with Severe AEs", "setting": "[3]; 240 mg ASA (n = 51)", "result": "0 (0.0%) subjects (%)"},
      {"measurement": "Subjects with any AE", "setting": "[3]; 240 mg ASA (n = 51)", "result": "12 (23.5%) subjects (%)"},
      {"measurement": "Subjects with any CTM-related AE", "setting": "[3]; 240 mg ASA (n = 51)", "result": "7 (13.7%) subjects (%)"},
      {"measurement": "reduction in mean flush intensity", "setting": "[4]", "result": 53, "unit": "%"},
      {"measurement": "reduction in median flush intensity", "setting": "[4]", "result": 77, "unit": "%"},
      {"measurement": "episodes of flushing per subject, mean", "setting": "[5]; 60 mg ASA", "result": 1.4},
      {"measurement": "subjects who experienced a flushing response", "setting": "[5]; 60 mg ASA (Treatment B)", "result": 87, "unit": "%"},
      {"measurement": "incidence of itching, crawling, reddening and fever-like sensation of the skin", "setting": "[5]; 60 mg ASA compared to placebo", "result": "occurred less frequently"},
      {"measurement": "times more likely to have fewer episodes of flushing", "setting": "[5]; 60 mg ASA compared to placebo (p>0.10)", "result": 1.3, "unit": "times"},
      {"measurement": "total number of flushing episodes", "setting": "[5]; 60 mg ASA", "result": 64, "unit": "episodes"},
      {"measurement": "maximum severity of flushing, mean", "setting": "[5]; 60 mg ASA", "result": 36.1, "unit": "mm"},
      {"measurement": "maximum severity of flushing, median", "setting": "[5]; 60 mg ASA", "result": 35.0, "unit": "mm"},
      {"measurement": "total cumulative duration of flushing, mean", "setting": "[5]; 60 mg ASA", "result": 101.8, "unit": "min"},
      {"measurement": "total cumulative duration of flushing, median", "setting": "[5]; 60 mg ASA", "result": 84.0, "unit": "min"},
      {"measurement": "episodes of flushing per subject, mean", "setting": "[5]; 240 mg ASA", "result": 1.1},
      {"measurement": "subjects who experienced a flushing response", "setting": "[5]; 240 mg ASA (Treatment A)", "result": 74, "unit": "%"},
      {"measurement": "incidence of individual flushing symptoms", "setting": "[5]; 240 mg ASA compared to 60 mg ASA or placebo", "result": "lower incidence of each flushing symptom"},
      {"measurement": "times more likely to have fewer episodes of flushing", "setting": "[5]; 240 mg ASA compared to 60 mg ASA, multinomial logistic regression (p=0.05)", "result": 1.7, "unit": "times"},
      {"measurement": "times more likely to have fewer episodes of flushing", "setting": "[5]; 240 mg ASA compared to placebo, multinomial logistic regression (p=0.01)", "result": 2.1, "unit": "times"},
      {"measurement": "total number of flushing episodes", "setting": "[5]; 240 mg ASA", "result": 52, "unit": "episodes"},
      {"measurement": "maximum severity of flushing, mean", "setting": "[5]; 240 mg ASA", "result": 25.8, "unit": "mm"},
      {"measurement": "maximum severity of flushing, median", "setting": "[5]; 240 mg ASA", "result": 20.0, "unit": "mm"},
      {"measurement": "total cumulative duration of flushing, mean", "setting": "[5]; 240 mg ASA", "result": 67.1, "unit": "min"},
      {"measurement": "total cumulative duration of flushing, median", "setting": "[5]; 240 mg ASA", "result": 44.5, "unit": "min"},
      {"measurement": "aspirin plasma AUC", "setting": "[6]; 160 mg", "result": "~800", "unit": "ngml^−1h"},
      {"measurement": "salicylic acid plasma AUC", "setting": "[6]; 160 mg", "result": "~11000", "unit": "ngml^−1h"},
      {"measurement": "aspirin plasma AUC", "setting": "[6]; 240 mg", "result": "~1200", "unit": "ngml^−1h"},
      {"measurement": "salicylic acid plasma AUC", "setting": "[6]; 240 mg", "result": "~16300", "unit": "ngml^−1h"},
      {"measurement": "aspirin plasma AUC", "setting": "[6]; 324 mg", "result": "~1600", "unit": "ngml^−1h"},
      {"measurement": "salicylic acid plasma AUC", "setting": "[6]; 324 mg", "result": "~22000", "unit": "ngml^−1h"}
    ]},
    {"smiles": "O=C(O)c1cccnc1", "note": "[Niacin, nicotinic acid]", "values": [
      {"measurement": "reduces Lp(a) levels", "setting": "[7]", "result": "about 40%"}
    ]},
    {"smiles": "O=C(O)c1ccccc1O", "note": "[salicylic acid]", "values": [
      {"measurement": "Cmax", "setting": "[6]; 160 mg, fast release rate", "result": "~2600", "unit": "ng/mL"},
      {"measurement": "Cmax", "setting": "[6]; 160 mg, intermediate release rate", "result": "~1700", "unit": "ng/mL"},
      {"measurement": "Cmax", "setting": "[6]; 160 mg, slow release rate", "result": "~1200", "unit": "ng/mL"},
      {"measurement": "Cmax", "setting": "[6]; 240 mg, fast release rate", "result": "~3700", "unit": "ng/mL"},
      {"measurement": "Cmax", "setting": "[6]; 240 mg, intermediate release rate", "result": "~2600", "unit": "ng/mL"},
      {"measurement": "Cmax", "setting": "[6]; 240 mg, slow release rate", "result": "~1800", "unit": "ng/mL"},
      {"measurement": "Cmax", "setting": "[6]; 324 mg, fast release rate", "result": "~5000", "unit": "ng/mL"},
      {"measurement": "Cmax", "setting": "[6]; 324 mg, intermediate release rate", "result": "~3500", "unit": "ng/mL"},
      {"measurement": "Cmax", "setting": "[6]; 324 mg, slow release rate", "result": "~2400", "unit": "ng/mL"}
    ]}
  ]
}
